We go through 35 compounds from patent US6960614B2, “Oxygenated esters of 4-lodo phenylamino benzhydroxamic acids” (Warner-Lambert Company, priority 2000, dated 2005).

The test system of this assay is MEK. Put plainly: Cellular Assay for Measuring MEK Inhibition (inhibition of ERK phosphorylation in C26 cells, Western blot). The conditions noted are these: for IC50: inhibition of ERK phosphorylation in murine colon 26 (C26) carcinoma cells, determined graphically from dose response curve; for % Inhibition @ 0.1 μM / % Inhibition @ 1 μM / % Inhibition @ 10 μM: ERK phosphorylation in C26 cells. It is filed as cell-based, murine. In short, it runs like this: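 Exponentially growing murine colon 26 (C26) carcinoma cells treated with varying compound concentrations at 37° C, then lysed. Western blot with antibody to dually phosphorylated ERK1/ERK2; blots stripped and re-probed for total ERK1/ERK2.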
On the technique in general: A western blot detects proteins with antibodies after separation by electrophoresis.

Counter-ions that a name gives are not always drawn. Bounds are passed on as bounds.

As to `O=C(NOCCNc1ccccc1)c1ccc(F)c(F)c1Nc1ccc(I)cc1Cl` [Example 77, 2-(2-Chloro-4-iodo-phenylamino)-3,4-difluoro-N-(2-phenylamino-ethoxy)-benzamide], the IC50 (usually the concentration that gives 50% inhibition) came out at 240 nM.
`O=C(NOCC1(CO)CC1)c1cc(F)c(F)cc1Nc1ccc(I)cc1F` [Example 221, 4,5-Difluoro-2-(2-fluoro-4-iodo-phenylamino)-N-(1-hydroxymethyl-cyclopropylmethoxy)-benzamide]: the “% Inhibition @ 0.1 μM” value was determined as 46% and the “% Inhibition @ 1 μM” value is 92.4%.
The matching figures for `CCC(O)CONC(=O)c1ccc(F)c(F)c1Nc1ccc(I)cc1F` (stereo not drawn) [Example 112, 3,4-Difluoro-2-(2-fluoro-4-iodo-phenylamino)-N-(2-hydroxy-butoxy)-benzamide]: 95.2% and 95.5%.
In turn, `COCCONC(=O)c1cc(Cl)c(F)c(F)c1Nc1ccc(I)cc1Cl` [Example 140, 5-Chloro-2-(2-chloro-4-iodo-phenylamino)-3,4-difluoro-N-(2-methoxy-ethoxy)-benzamide] returned a half-inhibitory concentration (IC50) of 450 nM.
`CCC(O)CONC(=O)c1ccc(F)c(F)c1Nc1ccc(I)cc1Cl` (stereo not drawn) [Example 104, 2-(2-Chloro-4-iodo-phenylamino)-3,4-difluoro-N-(2-hydroxy-butoxy)-benzamide]: the midpoint of inhibition, the IC50, lay at 24 nM.
On to `CCC(O)CONC(=O)c1cc(Br)c(F)c(F)c1Nc1ccc(I)cc1C` (stereo not drawn) [Example 108, 5-Bromo-3,4-difluoro-N-(2-hydroxy-butoxy)-2-(4-iodo-2-methyl-phenylamino)-benzamide], for which the “% Inhibition @ 0.1 μM” value was 74% and the “% Inhibition @ 1 μM” value is reported as 94.6%.
Compound `COCCOCCONC(=O)c1cc(Br)c(F)c(F)c1Nc1ccc(I)cc1C` [Example 206, 5-Bromo-3,4-difluoro-2-(4-iodo-2-methyl-phenylamino)-N-[2-(2-methoxy-ethoxy)-ethoxy]-benzamide] returned an IC50 of 140 nM.
`CC(C)(CO)CONC(=O)c1cc(F)c(F)c(F)c1Nc1ccc(I)cc1Cl` [Example 198, 2-(2-Chloro-4-iodo-phenylamino)-3,4,5-trifluoro-N-(3-hydroxy-2,2-dimethyl-propoxy)-benzamide]: the “% Inhibition @ 0.1 μM” value is 0% and the “% Inhibition @ 1 μM” value is on record as 43.5%.
Turning to `CC(C)(CO)CONC(=O)c1cc(Cl)c(F)c(F)c1Nc1ccc(I)cc1Cl` [Example 200, 5-Chloro-2-(2-chloro-4-iodo-phenylamino)-3,4-difluoro-N-(3-hydroxy-2,2-dimethyl-propoxy)-benzamide], the half-maximal inhibitory concentration (IC50) was determined as 300 nM. This counts as sub-micromolar.
Turning to `O=C(NOCC1(CO)CC1)c1cc(F)c(F)c(F)c1Nc1ccc(I)cc1F` [Example 219, 3,4,5-Trifluoro-2-(2-fluoro-4-iodo-phenylamino)-N-(1-hydroxymethyl-cyclopropylmethoxy)-benzamide], the “% Inhibition @ 0.1 μM” value was determined as 65.3% and the “% Inhibition @ 1 μM” value is on record as 96.2%.
On to `Cc1cc(I)ccc1Nc1c(C(=O)NOCCNc2ccccc2)cc(F)c(F)c1F` [Example 230, 3,4,5-Trifluoro-2-(4-iodo-2-methyl-phenylamino)-N-(2-phenylamino-ethoxy)-benzamide], for which the IC50 is 51 nM.
Regarding `Cc1cc(I)ccc1Nc1c(C(=O)NOCCNc2ccccc2)cc(Br)c(F)c1F` [Example 231, 5-Bromo-3,4-difluoro-2-(4-iodo-2-methyl-phenylamino)-N-(2-phenylamino-ethoxy)-benzamide], inhibition was half-maximal at 67 nM (IC50).
`O=C(NOCC(O)COc1ccccc1)c1ccc(F)c(F)c1Nc1ccc(I)cc1Cl` (stereo not drawn) [Example 183] gave an IC50 of 53 nM.
`CC(CO)ONC(=O)c1cc(Cl)c(F)c(F)c1Nc1ccc(I)cc1F` (stereo not drawn) [Example 130, 5-Chloro-3,4-difluoro-2-(2-fluoro-4-iodo-phenylamino)-N-(2-hydroxy-1-methyl-ethoxy)-benzamide] had an IC50 of 4 nM. Compared with the last compound, the IC50 is about 13-fold lower.
`Cc1cc(I)ccc1Nc1c(C(=O)NOCC(C)(C)CO)ccc(F)c1F` [Example 197, 3,4-Difluoro-N-(3-hydroxy-2,2-dimethyl-propoxy)-2-(4-iodo-2-methyl-phenylamino)-benzamide] had a 50% inhibitory concentration (IC50) of 51 nM.
The same measure, in the same setting: to `COCCOCCONC(=O)c1ccc(F)c(F)c1Nc1ccc(I)cc1Cl` [Example 207, 2-(2-Chloro-4-iodo-phenylamino)-3,4-difluoro-N-[2-(2-methoxy-ethoxy)-ethoxy]-benzamide] belongs 212 nM; to `COCCOCCONC(=O)c1cc(F)c(F)c(F)c1Nc1ccc(I)cc1Cl` [Example 208, 2-(2-Chloro-4-iodo-phenylamino)-3,4,5-trifluoro-N-[2-(2-methoxy-ethoxy)-ethoxy]-benzamide], 1030 nM.
With `CC(CO)ONC(=O)c1cc(Br)c(F)c(F)c1Nc1ccc(I)cc1F` (stereo not drawn) [Example 129, 5-Bromo-3,4-difluoro-2-(2-fluoro-4-iodo-phenylamino)-N-(2-hydroxy-1-methyl-ethoxy)-benzamide], the “% Inhibition @ 0.1 μM” value is 100% and the “% Inhibition @ 1 μM” value is 100%.
`CC(C)(CO)CONC(=O)c1ccc(F)c(F)c1Nc1ccc(I)cc1F` [Example 202, 3,4-Difluoro-2-(2-fluoro-4-iodo-phenylamino)-N-(3-hydroxy-2,2-dimethyl-propoxy)-benzamide]: the “% Inhibition @ 0.1 μM” value came to 59.7% and the “% Inhibition @ 1 μM” value turned out to be 94.6%.
The matching figures for `Cc1cc(I)ccc1Nc1c(C(=O)NOCC(O)COc2ccccc2)cc(Br)c(F)c1F` (stereo not drawn) [Example 187, 5-Bromo-3,4-difluoro-N-(2-hydroxy-3-phenoxy-propoxy)-2-(4-iodo-2-methyl-phenylamino)-benzamide]: 13.8% and 83.3%.
As for `CC(CO)ONC(=O)c1cc(Cl)c(F)c(F)c1Nc1ccc(F)cc1F` (stereo not drawn) [Example 132, 5-Chloro-2-(2,4-difluoro-phenylamino)-3,4-difluoro-N-(2-hydroxy-1-methyl-ethoxy)-benzamide], the “% Inhibition @ 1 μM” value was 45.7% and the “% Inhibition @ 10 μM” value is listed as 80.6%.
As for `Cc1cc(I)ccc1Nc1c(C(=O)NOCCCO)cc(F)c(F)c1F` [Example 100, 3,4,5-Trifluoro-N-(3-hydroxy-propoxy)-2-(4-iodo-2-methyl-phenylamino)-benzamide], half-maximal inhibition (IC50) required 58 nM. That is a double-digit nanomolar value.
Regarding `CC(C)(O)CONC(=O)c1cc(Br)c(F)c(F)c1Nc1ccc(I)cc1F` [Example 178, 5-Bromo-3,4-difluoro-2-(2-fluoro-4-iodo-phenylamino)-N-(2-hydroxy-2-methyl-propoxy)-benzamide], the “% Inhibition @ 0.1 μM” value is on record as 61.8% and the “% Inhibition @ 1 μM” value stood at 94.9%.
`CC(=O)OCCONC(=O)c1cc(F)c(F)c(F)c1Nc1ccc(I)cc1C` [Example 82, Acetic acid 2-({1-[3,4,5-trifluoro-2-(4-iodo-2-methyl-phenylamino)-phenyl]-methanoyl}-aminooxy)-ethyl ester] gave a half-inhibitory concentration (IC50) above 1000 nM.
On to `COCCONC(=O)c1ccc(F)c(F)c1Nc1ccc(I)cc1Cl` [Example 134, 2-(2-Chloro-4-iodo-phenylamino)-3,4-difluoro-N-(2-methoxy-ethoxy)-benzamide], for which half-maximal inhibition (IC50) was put at 370 nM.
Take `CC(O)CONC(=O)c1cc(F)c(F)cc1Nc1ccc(I)cc1F` (stereo not drawn) [Example 169, 4,5-Difluoro-2-(2-fluoro-4-iodo-phenylamino)-N-(2-hydroxy-propoxy)-benzamide]: half-maximal inhibition (IC50) required 14 nM.
Turning to `Cc1cc(I)ccc1Nc1c(C(=O)NOCCC(O)CO)cc(F)c(F)c1F` (stereo not drawn) [Example 96, N-(3,4-Dihydroxy-butoxy)-3,4,5-trifluoro-2-(4-iodo-2-methyl-phenylamino)-benzamide], the “% Inhibition @ 0.1 μM” value is on record as 35% and the “% Inhibition @ 1 μM” value was found to be 87.1%.
With `O=C(NOCC1(CO)CC1)c1ccc(F)c(F)c1Nc1ccc(Br)cc1F` [Example 223, 2-(4-Bromo-2-fluoro-phenylamino)-3,4-difluoro-N-(1-hydroxymethyl-cyclopropylmethoxy)-benzamide], the “% Inhibition @ 0.1 μM” value is 5.2% and the “% Inhibition @ 1 μM” value is recorded as 56.7%.
For `Cc1cc(I)ccc1Nc1c(C(=O)NOCC(O)COc2ccccc2)cc(F)c(F)c1F` (stereo not drawn) [Example 185, 3,4,5-Trifluoro-N-(2-hydroxy-3-phenoxy-propoxy)-2-(4-iodo-2-methyl-phenylamino)-benzamide], the “% Inhibition @ 0.1 μM” value amounted to 6.2% and the “% Inhibition @ 1 μM” value is given as 71.9%.
For `COCC(O)CONC(=O)c1ccc(F)c(F)c1Nc1ccc(F)cc1F` (stereo not drawn) [Example 226, 2-(2,4-Difluoro-phenylamino)-3,4-difluoro-N-(2-hydroxy-3-methoxy-propoxy)-benzamide], the “% Inhibition @ 1 μM” value turned out to be 41.5% and the “% Inhibition @ 10 μM” value is recorded as 84.1%.
`Cc1cc(I)ccc1Nc1c(C(=O)NOCCNCC(F)(F)F)ccc(F)c1F` [Example 80, 3,4-Difluoro-2-(4-iodo-2-methyl-phenylamino)-N-[2-(2,2,2-trifluoro-ethylamino)-ethoxy]-benzamide; hydrochloride] came in with a concentration for half-maximal inhibition (IC50) of 490 nM.
The compound `CC(O)CONC(=O)c1ccc(F)c(F)c1Nc1ccc(I)cc1Cl` (stereo not drawn) [Example 156, 2-(2-Chloro-4-iodo-phenylamino)-3,4-difluoro-N-(2-hydroxy-propoxy)-benzamide] returned an IC50 of 11 nM.
`Cc1cc(I)ccc1Nc1c(C(=O)NOCCCO)cc(Br)c(F)c1F` [Example 102, 5-Bromo-3,4-difluoro-N-(3-hydroxy-propoxy)-2-(4-iodo-2-methyl-phenylamino)-benzamide] registered a half-maximal inhibitory concentration (IC50) of 275 nM.
Regarding `Cc1cc(I)ccc1Nc1c(C(=O)NOCC(O)CN2CCOCC2)cc(F)c(F)c1F` (stereo not drawn) [Example 146, 3,4,5-Trifluoro-N-(2-hydroxy-3-morpholin-4-yl-propoxy)-2-(4-iodo-2-methyl-phenylamino)-benzamide], the “% Inhibition @ 0.1 μM” value was 0% and the “% Inhibition @ 1 μM” value was 40.5%.
As to `O=C(NOCC(O)COc1ccccc1)c1ccc(F)c(F)c1Nc1ccc(F)cc1F` (stereo not drawn) [Example 195, 2-(2,4-Difluoro-phenylamino)-3,4-difluoro-N-(2-hydroxy-3-phenoxy-propoxy)-benzamide], the “% Inhibition @ 1 μM” value turned out to be 26.7% and the “% Inhibition @ 10 μM” value stood at 82.6%.
